# Source: publication PMC10776879, “In vitro screening of topical formulation excipients for epithelial toxicity in cancerous and non-cancerous cell lines” (EXCLI Journal, 2023)
# How the values were obtained:
# [1] = tested on: HaCaT human keratinocytes; test: MTT cell viability assay; assay type: cell-based; settings: Homo sapiens, 24 h exposure, read-out: IC50 (μg/ml) [Mean, Range] HaCaT, MTT
# Description: (§1) Cells were seeded into the 96-well cell culture plates in 100 μl of complete culture medium at the initial density of 2x10^4 (cells/ml). Cells were incubated under 5 % CO2 at 37 °C for 24 hours for adhering to the wells and medium was then replaced with 100 μl of fresh medium containing excipient solution at the required final concentration. Each concentration was tested in minimum of 5 replicates and control cells were exposed to the culture medium only.
# (§2) After cell incubation for 24 h, the excipient-containing medium was removed, and 100 μl of MTT in PBS (5 mg/ml) diluted 1:10 in medium was then added in the dark. Plates were further incubated for 2-3 h, after which time the medium was removed and the purple formazan product was dissolved by adding 200 μl of DMSO to each well. Plates were then placed in a shaker for 5 min at room temperature and the absorbance of the resulting solutions was measured at 570 nm using a microplate reader (Multiskan™ FC Microplate Photometer). The effect of each treatment was calculated as the percentage of tetrazolium salt reduction by viable cells against the negative control (cells treated with culture medium only).
# (§3) To assess the excipients' cytotoxicity, the dose-response effect of each excipient was measured against the cell lines. The cytotoxicity value for each concentration of the excipients was expressed as percentage of viability against the untreated control wells (the optical density of untreated cells was set at 100 % viability) to construct dose-response curves.
# (§4) All IC50 values were expressed as µg/ml. The percentage viability was calculated as follows: […]
# [2] = tested on: WM164 human melanoma cells; test: MTT cell viability assay; assay type: cell-based; settings: Homo sapiens, 24 h exposure, read-out: IC50 (μg/ml) [Mean, Range] WM164, MTT
# Description: as §1, §2, §3, §4
# [3] = tested on: D24 human melanoma cells; test: Reactive Oxygen Species evaluation with dihydrorhodamine 123; assay type: cell-based; settings: greatest applied concentration, 24 h
# Description: (§5) The oxidant-sensitive dye, dihydrorhodamine 123 (DHR), was used to detect intracellular ROS level. Cells were plated in the flat bottom 96-well plates to sub confluent (60-70 %) then the medium was removed and replaced with the pre-warmed treatment solutions (medium containing different concentration of the excipients). After 24 hours incubation with treatment solutions, medium was removed and replaced with the 100 μl of pre-warmed dying buffer (Hank's balanced salt solution (HBSS) containing 12 µM DHR dye). Cells were incubated for 30 minutes at 37 °C in a humidified 5 % CO2 atmosphere in dark. The cellular fluorescence generated by the DHR oxidation was measured at 485 nm (OD 485) using a microplate reader (Multiskan™ FC Microplate Photometer). Hydrogen peroxide (H2O2) treatment (800, 400, 200, and 100 µM)/ (27, 13.5, 6.75, 3.4 µg/ml) was used as positive control and dying buffer with no cells as blank control. Data points were recorded every 10 minutes for 60 minutes and exported for analysis by Excel software. The ROS level is calculated as the difference between (Ftest/ Fcontrol) and expressed as percentages of the control value using this formulation: […]
# (§6) where Ftest and Fcontrol are the fluorescence intensities of the cells exposed to the treatments and the cells with only medium, respectively. Fluorescence intensity of the blank wells were measured at every measurement time points and recorded to compare with the control wells.
# [4] = tested on: WM1366 human melanoma cells; test: as above; assay type: cell-based; settings: greatest applied concentration, 24 h
# Description: as §5, §6
# [5] = tested on: HaCaT human keratinocytes; test: as above; assay type: cell-based; settings: greatest applied concentration, 24 h
# Description: as §5, §6
# [6] = tested on: WM164 human melanoma cells; test: as above; assay type: cell-based; settings: greatest applied concentration, 24 h
# Description: as §5, §6
# [7] = tested on: D24 human melanoma cells; test: Crystal violet (CV) cell viability assay; assay type: cell-based; settings: Homo sapiens, 24 h exposure, read-out: IC50 (μg/ml) [Mean, Range] D24, CV
# Description: (§7) Cells were seeded into the 96-well cell culture plates in 100 μl of complete culture medium at the initial density of 2x10^4 (cells/ml). Cells were incubated under 5 % CO2 at 37 °C for 24 hours for adhering to the wells and medium was then replaced with 100 μl of fresh medium containing excipient solution at the required final concentration. Each concentration was tested in minimum of 5 replicates and control cells were exposed to the culture medium only. Fixed cells were stained with crystal violet dye solution to screen cell viability under treatment conditions. Cells are fixed by 4 % (v/v) paraformaldehyde in PBS for 10 minutes. Crystal violet assay of 0.05 % (v/v) is prepared by 1:4 dilution of the crystal violet stock solution (v/v) in 4 % (v/v) paraformaldehyde. The fixed cells were washed twice with PBS and covered with 250 µl crystal violet working solution. The plates were placed on a bench rocker with medium frequency (20 oscillations per minute) at room temperature for 20 minutes. The plates were emptied and washed under indirect stream of tap water for three times and inverted on filter paper. The plates were taped gently on the paper to remove any remaining liquid and air dried with no lid for minimum of 2 hr at room temperature. After the plates were photographed, blue dye was dissolved in DMSO and the optical density of each well was measured at 570 nm (OD570) with a plate reader (Multiskan™ FC Microplate Photometer). The effect of each treatment was calculated as the percentage of crystal viable staining of surviving attached cells, against the negative control (cells treated with culture medium only). To assess the excipients' cytotoxicity, the dose-response effect of each excipient was measured against the cell lines. The cytotoxicity value for each concentration of the excipients was expressed as percentage of viability against the untreated control wells (the optical density of untreated cells was set at 100 % viability) to construct dose-response curves. […] All IC50 values were expressed as µg/ml. The percentage viability was calculated as follows: […]
# [8] = tested on: WM1366 human melanoma cells; test: Crystal violet (CV) cell viability assay; assay type: cell-based; settings: Homo sapiens, 24 h exposure, read-out: IC50 (μg/ml) [Mean, Range] WM1366, CV
# Description: as §7
# [9] = tested on: HaCaT human keratinocytes; test: Crystal violet (CV) cell viability assay; assay type: cell-based; settings: Homo sapiens, 24 h exposure, read-out: IC50 (μg/ml) [Mean, Range] HaCaT, CV
# Description: as §7
# [10] = tested on: WM164 human melanoma cells; test: Crystal violet (CV) cell viability assay; assay type: cell-based; settings: Homo sapiens, 24 h exposure, read-out: IC50 (μg/ml) [Mean, Range] WM164, CV
# Description: as §7
# [11] = tested on: primary skin fibroblasts (FB); test: MTT cell viability assay; assay type: cell-based, human; settings: Homo sapiens, Skin fibroblast, 24 h exposure, read-out: IC50 (μg/ml) [Mean, Range] FB, MTT
# Description: as §1, §2, §3, §4
# [12] = tested on: primary skin fibroblasts (FB); test: Crystal violet (CV) cell viability assay; assay type: cell-based, human; settings: Homo sapiens, Skin fibroblast, 24 h exposure, read-out: IC50 (μg/ml) [Mean, Range] FB, CV
# Description: as §7
compound,measurement,setting,value
"CCOCCOCCO [Transcutol®, diethylene glycol monoethyl ether]",IC50,[1],3.32 µg/mL
same,IC50,[2],2.12 µg/mL
same,ROS production increase vs untreated control,[3],24.9%
same,ROS production increase vs untreated control,[4],18.1%
same,ROS production increase vs untreated control,[5],29.4%
same,ROS production increase vs untreated control,[6],22.5%
same,IC50,[7],5.01 µg/mL
same,IC50,[8],3.55 µg/mL
same,IC50,[9],2.91 µg/mL
same,IC50,[10],2.03 µg/mL
same,IC50,[11],5.54 µg/mL
same,IC50,[12],5.97 µg/mL
